Inhibition data for nine compounds are collected here from ChEMBL document CHEMBL3132769, “Fragment growing to retain or alter the selectivity of anchored kinase hinge-binding fragments” (Medchemcomm, 2014).

In test [1] the target is Mitogen-activated protein kinase 14 (Homo sapiens) (UniProt Q16539). The test is described as follows: Inhibition of human truncated p38 alpha expressed in Escherichia coli cell assessed as substrate phosphorylation using fluorescence-labelled peptides as substrate at 2 uM after 90 mins by microfluidic peptide phosphorylation assay.
For test [2], the target named is Cyclin-dependent kinase 2 (Homo sapiens) (UniProt P24941). The test is described as follows: Inhibition of human full length CDK2 expressed in baculovirus assessed as substrate phosphorylation using fluorescence-labelled peptides as substrate at 2 uM after 90 mins by microfluidic peptide phosphorylation assay.
Test [3] has as its target T1, Serine/threonine-protein kinase Sgk1 (Homo sapiens) (UniProt O00141).
T1 sequence (whole entry): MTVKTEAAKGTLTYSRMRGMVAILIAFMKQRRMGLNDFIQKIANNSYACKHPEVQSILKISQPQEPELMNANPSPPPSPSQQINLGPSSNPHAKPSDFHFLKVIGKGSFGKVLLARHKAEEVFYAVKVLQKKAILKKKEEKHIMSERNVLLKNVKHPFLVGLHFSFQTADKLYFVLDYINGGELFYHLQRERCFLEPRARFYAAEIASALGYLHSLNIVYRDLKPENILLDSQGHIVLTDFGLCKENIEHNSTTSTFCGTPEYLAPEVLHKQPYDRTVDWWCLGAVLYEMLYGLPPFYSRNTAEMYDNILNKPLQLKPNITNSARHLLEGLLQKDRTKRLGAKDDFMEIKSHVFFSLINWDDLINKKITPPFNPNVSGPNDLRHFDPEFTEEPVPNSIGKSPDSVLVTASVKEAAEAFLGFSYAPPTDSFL
Particulars: 0.1 uM.
Description: Inhibition of human truncated SGK1 expressed in baculovirus assessed as substrate phosphorylation using fluorescence-labelled peptides as substrate at 0.1 uM after 90 mins by microfluidic peptide phosphorylation assay

In test [4] the target is T2, Mitogen-activated protein kinase 13 (Homo sapiens) (UniProt O15264).
T2 sequence (whole entry): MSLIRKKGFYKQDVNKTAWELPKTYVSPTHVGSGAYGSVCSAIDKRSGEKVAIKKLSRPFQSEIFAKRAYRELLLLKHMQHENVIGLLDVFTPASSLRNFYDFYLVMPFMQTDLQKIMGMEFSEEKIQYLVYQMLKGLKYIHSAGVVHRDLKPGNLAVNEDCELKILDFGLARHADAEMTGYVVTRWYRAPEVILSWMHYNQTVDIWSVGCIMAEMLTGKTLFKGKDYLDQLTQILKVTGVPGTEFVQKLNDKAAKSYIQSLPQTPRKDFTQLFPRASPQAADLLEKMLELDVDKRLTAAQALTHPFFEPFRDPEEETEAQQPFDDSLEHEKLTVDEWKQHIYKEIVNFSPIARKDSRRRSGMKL
Kind of test: Inhibition of human full length p38 delta expressed in Escherichia coli cell assessed as substrate phosphorylation using fluorescence-labelled peptides as substrate at 0.1 uM after 90 mins by microfluidic peptide phosphorylation assay.

In test [5] the target is Platelet-derived growth factor receptor alpha (Homo sapiens) (UniProt P16234). The test is described as follows: Inhibition of human PDGFR alpha catalytic domain expressed in baculovirus assessed as substrate phosphorylation using fluorescence-labelled peptides as substrate at 0.2 uM after 90 mins by microfluidic peptide phosphorylation assay.
Platelet-derived growth factor receptor alpha (Homo sapiens), sequence (P16234 whole entry, the tested form may be a part): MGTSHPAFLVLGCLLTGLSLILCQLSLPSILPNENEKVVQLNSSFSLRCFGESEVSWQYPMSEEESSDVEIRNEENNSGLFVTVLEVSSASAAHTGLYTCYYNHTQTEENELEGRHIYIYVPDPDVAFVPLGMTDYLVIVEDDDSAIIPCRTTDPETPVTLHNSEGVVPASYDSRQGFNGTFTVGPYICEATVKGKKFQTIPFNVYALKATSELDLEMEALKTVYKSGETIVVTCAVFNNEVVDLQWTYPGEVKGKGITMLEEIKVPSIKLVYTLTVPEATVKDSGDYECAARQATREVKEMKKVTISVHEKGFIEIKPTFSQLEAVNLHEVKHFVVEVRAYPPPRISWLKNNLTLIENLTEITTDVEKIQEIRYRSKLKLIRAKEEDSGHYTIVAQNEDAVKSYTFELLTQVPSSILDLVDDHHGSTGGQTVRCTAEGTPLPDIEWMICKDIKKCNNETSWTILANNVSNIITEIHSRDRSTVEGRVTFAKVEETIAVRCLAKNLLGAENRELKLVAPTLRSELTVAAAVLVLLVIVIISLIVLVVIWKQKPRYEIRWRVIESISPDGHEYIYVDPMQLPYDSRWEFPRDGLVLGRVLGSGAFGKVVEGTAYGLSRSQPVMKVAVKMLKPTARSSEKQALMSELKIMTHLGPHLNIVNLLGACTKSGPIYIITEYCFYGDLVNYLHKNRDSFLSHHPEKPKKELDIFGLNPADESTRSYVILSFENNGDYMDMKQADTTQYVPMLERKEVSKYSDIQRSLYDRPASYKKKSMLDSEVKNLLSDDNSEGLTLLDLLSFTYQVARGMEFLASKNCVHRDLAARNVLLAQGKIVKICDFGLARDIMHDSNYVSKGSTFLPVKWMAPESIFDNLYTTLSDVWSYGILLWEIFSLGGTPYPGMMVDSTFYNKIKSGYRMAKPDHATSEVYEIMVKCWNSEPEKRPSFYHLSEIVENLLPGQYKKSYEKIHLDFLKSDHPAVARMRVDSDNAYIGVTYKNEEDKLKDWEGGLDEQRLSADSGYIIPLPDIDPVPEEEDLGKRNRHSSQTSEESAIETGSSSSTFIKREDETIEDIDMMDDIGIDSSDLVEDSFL
The target in test [6] is Receptor-type tyrosine-protein kinase FLT3 (Homo sapiens) (UniProt P36888). Kind of test: Inhibition of human FLT3 catalytic domain expressed in baculovirus assessed as substrate phosphorylation using fluorescence-labelled peptides as substrate at 0.2 uM after 90 mins by microfluidic peptide phosphorylation assay.
Receptor-type tyrosine-protein kinase FLT3 (Homo sapiens), sequence (P36888 whole entry, the tested form may be a part): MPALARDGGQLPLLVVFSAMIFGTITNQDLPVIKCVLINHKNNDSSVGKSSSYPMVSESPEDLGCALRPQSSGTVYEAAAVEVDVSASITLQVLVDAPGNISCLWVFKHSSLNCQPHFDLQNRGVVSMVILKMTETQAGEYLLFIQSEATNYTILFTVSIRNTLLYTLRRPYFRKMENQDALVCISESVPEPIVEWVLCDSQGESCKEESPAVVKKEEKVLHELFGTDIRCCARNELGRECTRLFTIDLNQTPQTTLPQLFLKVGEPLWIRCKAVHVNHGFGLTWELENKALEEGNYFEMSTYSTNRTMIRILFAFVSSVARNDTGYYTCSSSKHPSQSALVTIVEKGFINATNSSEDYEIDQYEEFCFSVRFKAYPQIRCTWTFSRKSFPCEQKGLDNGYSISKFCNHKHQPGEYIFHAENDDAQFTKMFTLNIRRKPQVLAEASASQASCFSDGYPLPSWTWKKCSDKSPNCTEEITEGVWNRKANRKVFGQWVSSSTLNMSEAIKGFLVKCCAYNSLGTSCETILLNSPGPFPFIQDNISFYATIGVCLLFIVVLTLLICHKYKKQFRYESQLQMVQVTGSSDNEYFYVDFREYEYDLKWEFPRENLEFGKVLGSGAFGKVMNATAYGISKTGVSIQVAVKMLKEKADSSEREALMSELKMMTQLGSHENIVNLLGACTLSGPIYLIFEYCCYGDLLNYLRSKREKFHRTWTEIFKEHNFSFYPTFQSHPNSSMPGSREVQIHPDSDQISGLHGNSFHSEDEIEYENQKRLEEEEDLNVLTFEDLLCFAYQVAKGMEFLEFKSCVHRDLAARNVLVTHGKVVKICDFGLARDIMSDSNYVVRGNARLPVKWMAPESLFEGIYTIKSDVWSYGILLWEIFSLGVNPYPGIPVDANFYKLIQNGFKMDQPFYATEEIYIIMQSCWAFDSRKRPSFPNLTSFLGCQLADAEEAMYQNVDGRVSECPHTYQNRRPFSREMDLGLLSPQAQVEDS
The target in test [7] is Serine/threonine-protein kinase PAK 2 (Homo sapiens) (UniProt Q13177). Kind of test: Inhibition of human truncated PAK2 expressed in Escherichia coli cell assessed as substrate phosphorylation using fluorescence-labelled peptides as substrate at 0.2 uM after 90 mins by microfluidic peptide phosphorylation assay.
Test [8] addresses Protein kinase C theta type (Homo sapiens) (UniProt Q04759). The test is described as follows: Inhibition of human truncated PKC theta expressed in baculovirus assessed as substrate phosphorylation using fluorescence-labelled peptides as substrate at 9 uM after 90 mins by microfluidic peptide phosphorylation assay.
Test [9] deals with Casein kinase I isoform alpha (Homo sapiens) (UniProt P48729). The test is described as follows: Inhibition of human full length CSNK1A1 expressed in baculovirus assessed as substrate phosphorylation using fluorescence-labelled peptides as substrate at 95 uM after 90 mins by microfluidic peptide phosphorylation assay.
Casein kinase I isoform alpha (Homo sapiens), sequence (P48729 2-337 limits assumed): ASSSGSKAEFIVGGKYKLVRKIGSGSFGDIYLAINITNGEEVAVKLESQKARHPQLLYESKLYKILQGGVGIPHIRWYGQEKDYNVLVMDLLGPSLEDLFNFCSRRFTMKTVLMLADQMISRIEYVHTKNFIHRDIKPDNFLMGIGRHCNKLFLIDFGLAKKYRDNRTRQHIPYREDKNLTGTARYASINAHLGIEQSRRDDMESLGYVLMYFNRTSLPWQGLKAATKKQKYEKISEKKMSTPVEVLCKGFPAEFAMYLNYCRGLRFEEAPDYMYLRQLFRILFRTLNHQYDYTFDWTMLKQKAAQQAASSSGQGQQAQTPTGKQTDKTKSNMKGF
Test [10] deals with T2, Mitogen-activated protein kinase 13 (Homo sapiens). Kind of test: Inhibition of human full length p38 delta expressed in Escherichia coli cell assessed as substrate phosphorylation using fluorescence-labelled peptides as substrate at 8 uM after 90 mins by microfluidic peptide phosphorylation assay.
Test [11] concerns the target Platelet-derived growth factor receptor alpha (Homo sapiens) (UniProt P16234). The test is described as follows: Inhibition of human PDGFR alpha catalytic domain expressed in baculovirus assessed as substrate phosphorylation using fluorescence-labelled peptides as substrate at 8 uM after 90 mins by microfluidic peptide phosphorylation assay.
For test [12], the target named is T3, Protein kinase C epsilon type (Homo sapiens) (UniProt Q02156).
T3 sequence (whole entry): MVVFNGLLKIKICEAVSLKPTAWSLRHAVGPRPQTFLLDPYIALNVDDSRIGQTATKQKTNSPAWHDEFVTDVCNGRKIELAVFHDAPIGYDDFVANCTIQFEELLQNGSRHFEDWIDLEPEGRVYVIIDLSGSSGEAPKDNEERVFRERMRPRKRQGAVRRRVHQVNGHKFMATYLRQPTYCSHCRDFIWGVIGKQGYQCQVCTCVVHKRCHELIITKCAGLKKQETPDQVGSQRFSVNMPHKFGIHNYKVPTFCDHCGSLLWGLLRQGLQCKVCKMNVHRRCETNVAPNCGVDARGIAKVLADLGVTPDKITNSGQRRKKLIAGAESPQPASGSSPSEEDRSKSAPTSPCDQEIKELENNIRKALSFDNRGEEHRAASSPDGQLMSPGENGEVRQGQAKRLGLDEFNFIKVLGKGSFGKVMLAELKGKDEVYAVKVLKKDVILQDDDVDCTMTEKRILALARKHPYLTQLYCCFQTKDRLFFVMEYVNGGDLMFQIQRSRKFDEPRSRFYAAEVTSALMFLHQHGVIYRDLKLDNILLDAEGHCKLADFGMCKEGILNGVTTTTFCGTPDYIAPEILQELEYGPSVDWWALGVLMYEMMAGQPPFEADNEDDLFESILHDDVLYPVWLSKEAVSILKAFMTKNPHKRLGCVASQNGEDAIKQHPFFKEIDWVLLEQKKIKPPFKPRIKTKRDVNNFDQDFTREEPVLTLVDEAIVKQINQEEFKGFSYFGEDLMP
The test is described as follows: Inhibition of human truncated PKC epsilon expressed in baculovirus assessed as substrate phosphorylation using fluorescence-labelled peptides as substrate at 70 uM after 90 mins by microfluidic peptide phosphorylation assay.

For test [13], the target named is Fibroblast growth factor receptor 4 (Homo sapiens) (UniProt P22455). The test is described as follows: Inhibition of human FGFR4 catalytic domain expressed in baculovirus assessed as substrate phosphorylation using fluorescence-labelled peptides as substrate at 420 uM after 90 mins by microfluidic peptide phosphorylation assay.
Fibroblast growth factor receptor 4 (Homo sapiens), sequence (P22455 22-802 limits assumed): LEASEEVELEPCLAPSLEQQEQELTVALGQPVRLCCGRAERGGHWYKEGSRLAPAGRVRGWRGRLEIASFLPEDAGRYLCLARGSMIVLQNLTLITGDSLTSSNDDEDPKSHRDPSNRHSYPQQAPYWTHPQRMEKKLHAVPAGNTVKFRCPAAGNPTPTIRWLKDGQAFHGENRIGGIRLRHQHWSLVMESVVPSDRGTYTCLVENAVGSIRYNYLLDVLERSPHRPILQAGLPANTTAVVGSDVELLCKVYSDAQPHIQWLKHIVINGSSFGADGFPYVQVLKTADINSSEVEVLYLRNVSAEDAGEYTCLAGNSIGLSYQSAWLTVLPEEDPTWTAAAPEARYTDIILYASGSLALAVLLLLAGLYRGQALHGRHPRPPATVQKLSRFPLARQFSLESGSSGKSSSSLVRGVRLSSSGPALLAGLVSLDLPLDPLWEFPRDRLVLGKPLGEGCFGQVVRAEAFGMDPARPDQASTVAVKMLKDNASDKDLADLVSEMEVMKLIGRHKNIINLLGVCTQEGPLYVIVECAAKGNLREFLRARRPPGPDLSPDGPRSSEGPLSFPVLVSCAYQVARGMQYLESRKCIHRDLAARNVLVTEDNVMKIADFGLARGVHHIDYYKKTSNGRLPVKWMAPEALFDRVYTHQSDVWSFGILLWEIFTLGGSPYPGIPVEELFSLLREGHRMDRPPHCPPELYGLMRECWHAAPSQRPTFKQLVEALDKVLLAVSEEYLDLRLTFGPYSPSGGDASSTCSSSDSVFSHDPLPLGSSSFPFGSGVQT
Test [14] concerns the target Epidermal growth factor receptor (Homo sapiens) (UniProt P00533). Kind of test: Inhibition of human EGFR catalytic domain expressed in baculovirus assessed as substrate phosphorylation using fluorescence-labelled peptides as substrate at 420 uM after 90 mins by microfluidic peptide phosphorylation assay.
Test [15] concerns the target Tyrosine-protein kinase HCK (Homo sapiens) (UniProt P08631). The test is described as follows: Inhibition of human HCK catalytic domain expressed in baculovirus assessed as substrate phosphorylation using fluorescence-labelled peptides as substrate at 1000 uM after 90 mins by microfluidic peptide phosphorylation assay.

Epidermal growth factor receptor (Homo sapiens), sequence (P00533 whole entry, the tested form may be a part): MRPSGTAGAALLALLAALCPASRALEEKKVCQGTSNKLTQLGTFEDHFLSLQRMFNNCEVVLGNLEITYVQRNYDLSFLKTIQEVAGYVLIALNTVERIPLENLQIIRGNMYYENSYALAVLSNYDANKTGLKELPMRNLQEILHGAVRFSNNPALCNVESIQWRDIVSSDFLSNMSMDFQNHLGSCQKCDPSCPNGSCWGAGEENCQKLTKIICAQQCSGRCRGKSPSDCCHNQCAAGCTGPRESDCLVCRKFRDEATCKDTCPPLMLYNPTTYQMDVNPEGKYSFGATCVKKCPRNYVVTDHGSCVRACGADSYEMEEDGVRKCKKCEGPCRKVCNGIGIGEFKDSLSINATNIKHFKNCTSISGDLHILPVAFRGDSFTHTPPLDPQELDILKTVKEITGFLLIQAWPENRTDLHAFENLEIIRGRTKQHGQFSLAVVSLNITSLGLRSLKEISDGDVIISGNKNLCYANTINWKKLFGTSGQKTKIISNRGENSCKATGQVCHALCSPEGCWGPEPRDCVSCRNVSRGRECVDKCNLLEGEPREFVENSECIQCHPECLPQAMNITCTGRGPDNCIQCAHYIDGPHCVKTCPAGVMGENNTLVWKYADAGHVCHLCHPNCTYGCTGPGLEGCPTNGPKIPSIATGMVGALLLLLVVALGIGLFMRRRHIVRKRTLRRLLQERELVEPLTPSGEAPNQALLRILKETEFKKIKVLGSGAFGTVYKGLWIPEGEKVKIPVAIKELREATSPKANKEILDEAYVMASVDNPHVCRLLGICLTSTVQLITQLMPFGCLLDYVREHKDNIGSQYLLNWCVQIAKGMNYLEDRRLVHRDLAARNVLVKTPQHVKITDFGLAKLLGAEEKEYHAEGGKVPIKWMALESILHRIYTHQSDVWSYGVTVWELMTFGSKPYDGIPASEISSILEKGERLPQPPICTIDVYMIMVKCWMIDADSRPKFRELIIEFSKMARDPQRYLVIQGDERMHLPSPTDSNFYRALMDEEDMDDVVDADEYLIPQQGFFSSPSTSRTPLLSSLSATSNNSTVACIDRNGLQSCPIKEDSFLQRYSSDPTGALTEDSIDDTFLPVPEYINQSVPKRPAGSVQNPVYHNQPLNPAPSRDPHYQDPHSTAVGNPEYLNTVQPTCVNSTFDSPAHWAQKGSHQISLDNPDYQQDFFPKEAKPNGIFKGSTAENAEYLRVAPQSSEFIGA
Tyrosine-protein kinase HCK (Homo sapiens), sequence (P08631 2-526 limits assumed): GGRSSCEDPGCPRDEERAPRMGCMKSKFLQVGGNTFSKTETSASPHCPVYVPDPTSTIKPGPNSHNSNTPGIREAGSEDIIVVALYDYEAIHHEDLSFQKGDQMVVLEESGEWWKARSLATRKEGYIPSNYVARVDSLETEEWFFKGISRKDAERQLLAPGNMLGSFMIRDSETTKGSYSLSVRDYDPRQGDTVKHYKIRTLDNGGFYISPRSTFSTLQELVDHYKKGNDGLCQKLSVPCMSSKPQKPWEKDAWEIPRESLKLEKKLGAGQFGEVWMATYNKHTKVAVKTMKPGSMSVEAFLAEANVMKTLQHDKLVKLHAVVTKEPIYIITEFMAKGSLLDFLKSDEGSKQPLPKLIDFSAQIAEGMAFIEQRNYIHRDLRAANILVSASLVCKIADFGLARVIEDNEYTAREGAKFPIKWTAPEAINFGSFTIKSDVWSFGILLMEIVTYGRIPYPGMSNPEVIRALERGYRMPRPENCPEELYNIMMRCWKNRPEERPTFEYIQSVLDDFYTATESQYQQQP

Take `NC1CCN(c2ncnc3[nH]ccc23)CC1`: the inhibition in test [1] is 2%; in [2] it was 0%.

As for `C[C@H](CN(C)C)Oc1nc(Nc2cc3cccc(Cl)c3cn2)cnc1C#N`, the values for the inhibition in [3] and in [4] were 0% and 2.5%, respectively. Consider `Clc1ccc(C2(c3ccc(-c4ncnc5[nH]cnc45)cc3)CCNCC2)cc1`, for which the figures for the inhibition in test [5], in test [6] and in test [7] were 0.5%, 7.5% and 11%, respectively. With `NCC1CN(c2ncnc3[nH]c4cnccc4c23)CCO1` (stereo not given), in [8], the inhibition worked out at 52.5%.

Consider `NCCc1ccc(-c2ncnc3[nH]cnc23)cc1`, for which, in test [9], the inhibition amounted to 53.5%. Take `NCC1CCN(c2ncnc3[nH]ccc23)CC1`: the inhibition in [10] stood at 5.5%; in test [11], 0%.

On to `CNCc1ccc(-c2ncnc3[nH]cnc23)cc1`, for which the inhibition in test [12] worked out at 44%. Take `c1nc(N2CCOCC2)c2nc[nH]c2n1`: the inhibition in test [13] is 75.5%; in test [14], 29%. As for `c1cnc2[nH]ccc2c1`, in [15], the inhibition was 30%.
